In publication PMC12002301, “Discovery and functional characterization of a bombesin-type neuropeptide signaling system in an invertebrate” (Proceedings of the National Academy of Sciences of the …, 2025):
Entries after “also recorded” stand apart in the source; their conditions may differ. Ends that are not written are not given here.

Columns and labels:
[1] = tested on: tube foot preparations; details: cited from earlier work
Description: Based on the expression of ArBNP in the cardiac stomach and tube feet of A. rubens, experiments were performed to investigate effects of ArBN on in vitro preparations of these organs. […] In experiments where cardiac stomach preparations were washed in between application of ArBN at different ...

[2] = tested on: intestinal smooth muscle from caimans; details: cited from earlier work
Text: (§1) The functional characterization of ArBN in A. rubens provides insights into the comparative physiology of BN-type neuropeptide signaling.

[3] = tested on: cardiac stomach preparations; details: cited from earlier work
Description: Based on the expression of ArBNP in the cardiac stomach and tube feet of A. rubens, experiments were performed to investigate effects of ArBN on in vitro preparations of these organs. […] In experiments where cardiac stomach preparations were washed in between application of ArBN at different ... || Starfish (A. rubens) feed by everting their cardiac stomach out of the mouth over the digestible soft tissues of prey (e.g., mussels) and when feeding is completed, the stomach is retracted back into the central disk region of the body ([45]). […] Discovery of neuropeptides that exert excitatory or inhibitory effects on the cardiac stomach in vitro is of interest with respect to the unusual feeding behavior of A. rubens and other starfish. When starfish feed on bivalve mollusks such as mussels, they use the collective pulling power of tube feet loca ...

[4] = tested on: A. rubens feeding behavior; details: vs water; cited from earlier work
Description: Based on the effects of NGFFYamide, ArSK/CCK1, and ArSK/CCK2 in triggering a process associated with termination of feeding behavior—cardiac stomach retraction—the effects of neuropeptides on feeding behavior of starfish have also been investigated. In these experiments starfish were starved and then presented with prey (a mussel) in a testing tank and the time taken to touch, enclose, and then consume the mussel was measured.

[5] = tested on: everted cardiac stomach of A. rubens; assay: In vivo retraction of everted cardiac stomach; parameters: species or system Asterias rubens; details: 10 µL of 10^-4 M injected, words
Text: Therefore, we performed experiments to investigate whether ArBN causes cardiac stomach retraction in A. rubens when injected in vivo. A description of the methods employed for investigation of in vivo effects of ArBN on the everted cardiac stomach of A. rubens is included in SI Appendix, SI Methods. […]
foot preparations. Having determined that ArBN had effects on preparations when tested at a high concentration (10^-6 M), then dose-response data for this peptide were obtained with final concentrations in the organ bath ranging from 10^-10 M to 10^-6 M. Two types of tests were performed when obtaining dose-response data for ArBN:
Test type 1: Here the preparation was washed thoroughly with seawater after adding ArBN to the organ at different concentrations. […]
The contraction effect of NGFFYamide (10^-7 M) or ACh (10^-5 M) was defined as 100% and the effects of ArBN were calculated as a percentage of the effect of NGFFYamide or ACh. […]
Analysis of the in vivo effects of ArBN on the everted cardiac stomach of A. rubens The physiological status of the starfish (~8 cm in diameter) tested was normalized by a 7-day starvation period. […] Then, the starfish was firstly injected with 10 µl of distilled water (negative control) and video recorded using a camera (Canon EOS 700D) for 7 min. Then, the same starfish was injected with NGFFYamide (positive control) or ArBN and video recorded for 7 min. […]

[6] = tested on: everted cardiac stomach of A. rubens; details: cited from earlier work
Text: Starfish (A. rubens) feed by everting their cardiac stomach out of the mouth over the digestible soft tissues of prey (e.g., mussels) and when feeding is completed, the stomach is retracted back into the central disk region of the body ([45]). […] Discovery of neuropeptides that exert excitatory or inhibitory effects on the cardiac stomach in vitro is of interest with respect to the unusual feeding behavior of A. rubens and other starfish. When starfish feed on bivalve mollusks such as mussels, they use the collective pulling power of tube feet loca ...

[7] = tested on: fundic muscle of mice; details: cited from earlier work
Text: as §1

[8] = tested on: BB2 receptor (GRP-R); parameters: method as in PMID 1707129, PMID 1848080, PMID 1671171, PMID 1655761, PMID 31593737; details: mammals; cited from earlier work
[9] = tested on: BB1 receptor (NMB-R); details: mammals; cited from earlier work
Text: BN-type neuropeptides exert their effects by binding to GPCRs. In mammals, NMB and GRP act as high affinity ligands for the BB1 receptor (NMB-R) and the BB2 receptor (GRP-R), respectively, and orthologs of these receptors have been identified in nonmammalian vertebrates ([20]–[24]). […] BN-type neuropeptides are involved in regulation of a variety of physiological and behavioral processes in mammals/vertebrates, including t ...

[10] = tested on: GPCR activated by BN-type neuropeptide; details: Branchiostoma japonicum; cited from earlier work
Text: Insights into the evolutionary history of BN-type neuropeptide signaling have been obtained from phylogenetic analysis of genome sequence data. A gene encoding a BN-type neuropeptide precursor was identified in the invertebrate chordate Branchiostoma floridae [subphylum Cephalochordata; ([4])] and, subsequently, experimental characterization of BN-type neuropeptide signaling in the cephalochordate Branchiostoma japonicum has been reported ([24]). A GPCR that is activated by the BN-type neuropeptide DKGQEHWQYGHWY-NH2 was identified. Furthermore, expression of the gene encoding this neuropeptide ...

CC(=O)OCC[N+](C)(C)C [ACh, acetylcholine]
effect on tube foot preparations in vitro [1]: causes contraction of tube foot preparations in vitro

pQQRLGNQWAVGHLM-NH2 [BN, peptide first isolated from the skin of the frog Bombina bombina]
effect on intestinal smooth muscle [2]: excitatory effect

NGFFYamide [positive control]
effect on cardiac stomach preparations in vitro [3]: causes contraction of cardiac stomach preparations in vitro; also recorded: triggers cardiac stomach contraction in vitro; also recorded: cause cardiac stomach contraction in vitro | time taken to enclose a mussel [4]: increase in the time taken for starfish to touch and enclose a mussel | time taken to touch a mussel [4]: increase in the time taken for starfish to touch | cardiac stomach retraction [5]: caused cardiac stomach retraction | cardiac stomach retraction in vivo [6]: retraction in vivo; also recorded: trigger retraction of the everted cardiac stomach

GRP: BN-like peptide identified in the porcine gut (APVSVGGGTVLAKMYPRGNHWAVGHLM; ends and bridges not checked; UniProt P63153 24-50, looked up)
contraction of fundic muscle [7]: dose-dependent contraction | affinity for BB2 receptor (GRP-R) [8]: high affinity

NMB: ranatensin-like peptide identified in the porcine spinal cord
affinity for BB1 receptor (NMB-R) [9]: high affinity | contraction of fundic muscle [7]: dose-dependent contraction

DKGQEHWQYGHWY-NH2 [BN-type neuropeptide of the cephalochordate Branchiostoma japonicum]
GPCR activation [10]: activated
